Results published in US20220401390A1, “TREATMENTS OF DIABETIC MACULAR EDEMA AND IMPAIRED VISUAL ACUITY” (KALVISTA PHARMACEUTICALS LIMITED, priority 2019, published 2022).

Tested on: subjects with ciDME who have had prior anti-VEGF treatment
Experiment: Study 2: sham-controlled monthly intravitreal injections, BCVA (ETDRS) efficacy
Assay type: in vivo, human
Parameters: BCVA (letters): any loss from baseline, Diff. v. sham / BCVA: ≥5 letter loss from baseline, Diff. v. sham / BCVA: ≥10 letter loss from baseline, Diff. v. sham / BCVA: ≥15 letter loss from baseline, Diff. v. sham: unit not given here
Settings: for BCVA: ≥10 letter loss from baseline, Diff. v. sham / BCVA: ≥15 letter loss from baseline, Diff. v. sham / BCVA (letters): any loss from baseline, Diff. v. sham / BCVA: ≥5 letter loss from baseline, Diff. v. sham: week 16
Description: To investigate monthly dosing of intravitreal (IVT) injection of the compound of Formula A in subjects with ciDME who have had prior anti-VEGF treatment. In particular, to evaluate any effect on the efficacy in the treatment, prevention, or prevention of worsening of ciDME in subjects who have had prior anti-VEGF treatment.
This study was a randomized, sham-controlled, double-masked, 3-arm study into efficacy, safety and tolerability of monthly intravitreal injections of the compound of Formula A as a monotherapy in adult subjects with ciDME. The subjects had all had prior anti-VEGF treatment.
129 adult subjects were chosen using the following inclusion criteria: • 1. Male or female adult subjects 18 years of age and older. • 2. Confirmed diagnosis of Type I or Type II diabetes mellitus (DM). Any of the following were sufficient: • a. Current regular use of insulin for the treatment of diabetes • b. Current regular use of oral anti-hyperglycemia agents for the treatment of diabetes • c. Documented diabetes by American Diabetes Association and/or World Health Organization (VVHO) criteria. • 3. Best Corrected Visual Acuity (BCVA), using Standard Early Treatment Diabetic Retinopathy Study (ETDRS) chart, of ≥19 letters (˜20/400) and ≤73 letters (˜20/40) in the study eye and ≥34 letters (˜20/200 or better) in the fellow eye at Screening and Day 1. • 4. Presence of ciDME in the study eye defined as Heidelberg Spectralis Optical Coherence Tomography (SD-OCT) CST ≥305 μm in women and ≥320 μm in men in the study eye (as assessed at Screening by the Investigator and Central Image Reading Center (CIRC) and on Day 1 by the Investigator). • 5. Subjects' first anti-VEGF injection in the study eye occurred 36 months prior to Day 1. • 6. Subjects received at least 3 anti-VEGF injections in the study eye within a 6-month period within the 36 months prior to Day 1. • 7. Subject's' last anti-VEGF injection in the study eye was 8 weeks prior to Day 1. • 8. Subjects, who in the view of the Investigator, were able to defer treatment in the study eye for at least 6 months following Day 1. • 9. […] Provide signed informed consent and were willing and capable of complying with clinic visits and study procedures.
The 129 eligible subjects were randomized approximately 1:1:1 into three arms: • 1. Arm 1, N=44: • Received injections of 3 μg/eye (100 μL injection volume at a concentration of 30 μg/mL) of the compound of formula A; • 2. Arm 2, N=41: • Received injections of 6 μg/eye (100 μL injection volume at a concentration of 60 μg/mL) of the compound of formula A; and • 3. Arm 3, N=44: • Received a sham procedure; during a 12-week, double-masked treatment period (a total of 4 doses given at approximately monthly intervals).
Subjects visited the study clinic on Day 1 and Weeks 4, 8, and 12 during the Treatment Phase for study drug administration or sham procedure, safety, and ophthalmic assessments.
The ophthalmic assessments were carried out in approximately the following order at the subjects' visits to the study clinic on Day 1, and Weeks 4, 8 and 12: • BCVA (must be performed prior to all other ophthalmic procedures) • Slit lamp biomicroscopy • Pre-Injection IOP/IOP at visits with no study drug administration (must be done prior to dilation) • Dilated indirect ophthalmoscopy • Fundus photography • SD-OCT • Intravitreal injection • Post-Injection IOP
All subjects visited the clinic at Weeks 16, 20, and 24 after the last study drug administration or sham procedure for safety and ophthalmic assessments. The visit window for Weeks 16, 20, and 24 is ±7 days.
The assessment measured change from baseline in BCVA letter count in the study eye at Week 16. Change from baseline in BCVA letter count is calculated as Week 16 BCVA letter count minus Day 1 BCVA letter count such that a negative difference indicates a worsening in vision. […]

CCOc1ccc(C[C@@H](NC(=O)c2ccccc2)C(=O)N[C@@H](Cc2ccccc2)C(=O)NCc2ccc(CN)cc2)cc1 [compound of Formula A, N—[(R)-1-[(S)-1-(4-Aminomethyl-benzylcarbamoyl)-2-phenyl-ethylcarbamoyl]-2-(4-ethoxy-phenyl)-ethyl]-benzamide]
BCVA improvement (letters), change versus sham, mean (3 μg, 4 weeks, positive value is improvement): 0.6 letters
BCVA improvement (letters), change versus sham, mean (3 μg, 8 weeks, positive value is improvement): 1.2 letters
BCVA improvement (letters), change versus sham, mean (3 μg, 12 weeks, positive value is improvement): 3.8 letters
BCVA improvement (letters), change versus sham, mean (3 μg, 16 weeks, positive value is improvement): 1.5 letters
BCVA improvement (letters), change versus sham, mean (3 μg, 20 weeks, positive value is improvement): −1.2 letters
BCVA improvement (letters), change versus sham, mean (3 μg, 24 weeks, positive value is improvement): −0.7 letters
BCVA (letters): any loss from baseline, (%) (3 μg, week 16, n = 44): (50.0) %
BCVA: ≥5 letter loss from baseline, (%) (3 μg, week 16, n = 44): (25.0) %
BCVA: ≥10 letter loss from baseline, (%) (3 μg, week 16, n = 44): (9.1) %
BCVA: ≥15 letter loss from baseline, (%) (3 μg, week 16, n = 44): (4.5) %
BCVA: ≥10 letter loss from baseline, Diff. v. sham (3 μg, p-value 0.228): −11.4
BCVA: ≥15 letter loss from baseline, Diff. v. sham (3 μg, p-value 0.4336): −6.8
BCVA (letters): any loss from baseline, Diff. v. sham (3 μg, p-value 0.6695): −4.5
BCVA: ≥5 letter loss from baseline, Diff. v. sham (3 μg, p-value 0.8083): −2.3
Improvement in BCVA (letters) score compared to sham after the treatment period (in words) (6 μg doses, through to the 24 week time period): maintained
BCVA improvement (letters), change versus sham, mean (6 μg, all subjects, 4 weeks, positive value is improvement): 0.9 letters
BCVA improvement (letters), change versus sham, mean (6 μg, all subjects, 8 weeks, positive value is improvement): 1.1 letters
BCVA improvement (letters), change versus sham, mean (6 μg, all subjects, 12 weeks, positive value is improvement): 2.9 letters
BCVA improvement (letters), change versus sham, mean (6 μg, all subjects, 16 weeks, positive value is improvement): 2.6 letters
BCVA improvement (letters), change versus sham, mean (6 μg, all subjects, 20 weeks, positive value is improvement): 2.0 letters
BCVA improvement (letters), change versus sham, mean (6 μg, all subjects, 24 weeks, positive value is improvement): 2.1 letters
BCVA improvement (letters), change versus sham, mean (6 μg, early stage subjects (baseline BCVA >55 letters), 4 weeks): 2.3 letters
BCVA improvement (letters), change versus sham, mean (6 μg, early stage subjects (baseline BCVA >55 letters), 8 weeks): 1.8 letters
BCVA improvement (letters), change versus sham, mean (6 μg, early stage subjects (baseline BCVA >55 letters), 12 weeks): 4.7 letters
BCVA improvement (letters), change versus sham, mean (6 μg, early stage subjects (baseline BCVA >55 letters), 16 weeks): 4.9 letters
BCVA improvement (letters), change versus sham, mean (6 μg, early stage subjects (baseline BCVA >55 letters), 20 weeks): 3.5 letters
BCVA improvement (letters), change versus sham, mean (6 μg, early stage subjects (baseline BCVA >55 letters), 24 weeks): 2.9 letters
BCVA (letters): any loss from baseline, (%) (6 μg, week 16, n = 41): (32.5) %
BCVA: ≥5 letter loss from baseline, (%) (6 μg, week 16, n = 41): (20.0) %
BCVA: ≥10 letter loss from baseline, (%) (6 μg, week 16, n = 41): (5.0) %
BCVA: ≥15 letter loss from baseline, (%) (6 μg, week 16, n = 41): (0) %
BCVA (letters): any loss from baseline, Diff. v. sham (6 μg, p-value 0.0421): −22.0
BCVA: ≥10 letter loss from baseline, Diff. v. sham (6 μg, p-value 0.0516): −15.5
BCVA: ≥15 letter loss from baseline, Diff. v. sham (6 μg, p-value 0.0565): −11.4
BCVA: ≥5 letter loss from baseline, Diff. v. sham (6 μg, p-value 0.4344): −7.3
Average improvement in BCVA score of early stage patients versus overall population (in words) (baseline BCVA greater than 55 letters, every measurement taken): consistently better average improvement in BCVA score than the overall average population score
Progression of DME or impaired visual acuity (in words) (subjects that had previously had anti-VEGF treatment): slowing of the progression
